From patent US9274101B2 (BIOLOG, Inc., priority 2001, dated 2016)
“Also recorded” adds a separate entry of the source.

Assays:
Type in all cases: cell-based, human
HepG2 cells = HepG2 cells on flat bottom plastic wells, energy sources at a range of concentrations; conditions: Homo sapiens, HepG2, 72 h, read-out: HepG2 Cells Responses After 72 hours in Culture and a 4 hour Color Development Period; for activity at 30 µM: Conc. 0.03 mM; for activity at 100 µM: Conc. 0.10 mM; for activity at 330 µM: Conc. 0.33 mM; for activity at 1000 µM: Conc. 1.00 mM; for activity at 3300 µM: Conc. 3.3 mM; for activity at 10000 µM: Conc. 10 mM; for activity at 15000 µM: Conc. 15 mM; for activity at 20000 µM: Conc. 20 mM
Experimental: In this Example, methods for testing adherent cells for their ability to use multiple carbon sources are described. The human hepatocellular carcinoma cell line known as HepG2 (Knowles et al., Science, 209:497-499 [1980]) was chosen for this experiment. However, this application is not intended to be limited to the use of HepG2 cells, hepatocytes, carcinoma cells or even human cells.
HepG2 cells were grown in Falcon tissue culture flasks with vented tops. The culture medium used was Minimal Essential medium (MEM, Invitrogen 11095) with 1 g/L glucose, 2 mM L-glutamine, 2.2 g/L sodium bicarbonate, 10 mg/L phenol red, and supplemented with 0.1 mM Nonessential Amino Acids, 1 mM sodium pyruvate, 50 U/mL penicillin, 50 μg/mL streptomycin, and 10% (v/v) heat inactivated fetal bovine serum (HI FBS, Invitrogen 16140). The cells were seeded at 2×10^4/cm^2 and used 3 days after initiation of culture. During all incubations, the cells were kept in an atmosphere of 5% CO2, 90-100% humidity, and 37° C. Cells were harvested by trypsinization for 3 minutes in 0.25% trypsin-1 mM EDTA and resuspended in an equal volume of culture medium. A viable cell count was obtained by trypan blue exclusion and an appropriate volume of the cell suspension (to have 33% more viable cells than was sufficient for the experiment) was placed in a polypropylene centrifuge tube. Cells were pelleted by centrifugation at 350×g for 10 minutes at room temperature, resuspended in Dulbecco's Phosphate Buffered Saline (D-PBS, Invitrogen 14040) and centrifuged a second time. Cells were then resuspended to two-thirds the final volume needed in Dulbecco' ? s Modified Eagle's Medium (DME, Sigma D5030) containing 10% HI FBS and penicillin-streptomycin but without glucose, L-glutamine, sodium pyruvate, and phenol red. An aliquot was counted by trypan blue exclusion and the cell density was adjusted to 1.28×10^5/mL. Cells were plated in 100 μL/well in wells of standard, 96-well plates (4×10^4 cells/cm^2) and allowed to adhere overnight prior to addition of test chemicals.
For assay, the culture medium was aspirated, the wells were washed once with D-PBS and 170 μL of DME were added to each well, followed by 30 μL of the appropriate dilution of each test energy source. Stocks of 133 mM of each test chemical were prepared in tissue culture grade water, sterile filtered, and dilutions were prepared in a master plate so that, upon dilution into a regular 96-well MICROPLATE a total well volume of 200 μL, the final concentrations would be 0.033 to 20 mM. Negative control wells received 30 μL of tissue culture grade water. For each plate containing energy sources and cells, a second, control plate containing only energy sources was prepared. Plates were incubated at 5% CO2, 90-100% humidity, and 37° C. for 48 to 72 hours prior to addition of the MTS/PMS colorometric reagent (10 μL/well). The color formed in each well 4-24 hours after addition of the calorimetric reagent, was measured with a plate reader at 490 nm with a reference wavelength of 650 nm. OD values from the control plate were subtracted from the OD values obtained with cells prior to normalizing the data to % negative control (cells without added energy source).

HL-60 cells [1] = test: Effect of 10 mM citric acid on HL-60 energy utilization; conditions: for Effect of 10 mM Citric Acid on HL-60 Energy Utilization: negative control without energy sources and without citric acid
HL-60 cells [2] = test: Effect of 1 mM chloramphenicol on HL-60 energy utilization; conditions: negative control without chloramphenicol
Experimental: In this Example, methods for testing antimicrobial-induced modulation in growth of a cell are described. The antimicrobial selected for this Example is chloramphenicol. However, this application is not intended to be limited to the use of chloramphenicol, translation inhibitors or even antibiotics. HL-60 cells were cultured as described in Example 27.
After washing, HL-60 cells were resuspended in DME-R. An aliquot of the cell suspension was counted by trypan blue exclusion and the cell density was adjusted to 6.67×10^5[…]. Fifty μL of DME-R containing 3 mM chloramphenicol were added to each well of the appropriate number of half area, 96-well plates, followed by 25 μL of the appropriate dilution of each test energy source. Stocks of 133 mM of each test chemical were prepared in tissue culture grade water, sterile filtered, and dilutions were prepared in a master plate so that, upon dilution in a total volume of 150 μL, the final concentrations would be 0.033 to 20 mM. Negative control wells received 25 μL of tissue culture grade water. The cells were plated at a volume of 75 μL/well, giving a final cell density of 5×10^4/well. For each plate containing energy sources and cells, a second, control plate containing only energy sources was prepared. Plates were incubated at 5% CO2, 90-100% humidity, and 37° C. for 24 hours prior to addition of the MTS/MPMS colorimetric reagent (7.5 μL/well). The color formed in each well 24 hours after addition of the colorimetric reagent, was measured with a plate reader at 490 nm with a reference wavelength of 650 nm. OD values from the control plate were subtracted from the OD values obtained with cells prior to normalizing the data to % negative control.
Data shown in Table 25 are expressed as percent negative control without chloramphenicol. […] Chloramphenicol clearly has a different effect on the cells than citrate shown in Example 33.

[3] = energy source 0.03 mM with 10 mM citric acid
[4] = energy source 0.10 mM with 10 mM citric acid
[5] = energy source 0.33 mM with 10 mM citric acid
[6] = energy source 1.00 mM with 10 mM citric acid
[7] = energy source 3.3 mM with 10 mM citric acid
[8] = energy source 10 mM with 10 mM citric acid
[9] = energy source 15 mM with 10 mM citric acid
[10] = energy source 20 mM with 10 mM citric acid
[11] = energy source 0.03 mM with 1 mM chloramphenicol
[12] = energy source 0.10 mM with 1 mM chloramphenicol
[13] = energy source 0.33 mM with 1 mM chloramphenicol
[14] = energy source 1.00 mM with 1 mM chloramphenicol
[15] = energy source 3.3 mM with 1 mM chloramphenicol
[16] = energy source 10 mM with 1 mM chloramphenicol
[17] = energy source 15 mM with 1 mM chloramphenicol
[18] = energy source 20 mM with 1 mM chloramphenicol

Row | SMILES | activity at 30 µM (HepG2 cells) [%] | activity at 100 µM (HepG2 cells) [%] | activity at 330 µM (HepG2 cells) [%] | activity at 1000 µM (HepG2 cells) [%] | activity at 3300 µM (HepG2 cells) [%] | activity at 10000 µM (HepG2 cells) [%] | activity at 15000 µM (HepG2 cells) [%] | activity at 20000 µM (HepG2 cells) [%] | Effect of 10 mM Citric Acid on HL-60 Energy Utilization (HL-60 cells [1]; [3]) | Effect of 10 mM Citric Acid on HL-60 Energy Utilization (HL-60 cells [1]; [4]) | Effect of 10 mM Citric Acid on HL-60 Energy Utilization (HL-60 cells [1]; [5]) | Effect of 10 mM Citric Acid on HL-60 Energy Utilization (HL-60 cells [1]; [6]) | Effect of 1 mM chloramphenicol on HL-60 Energy Utilization (HL-60 cells [2]; [11]) | Effect of 1 mM chloramphenicol on HL-60 Energy Utilization (HL-60 cells [2]; [12]) | Effect of 1 mM chloramphenicol on HL-60 Energy Utilization (HL-60 cells [2]; [13]) | Effect of 1 mM chloramphenicol on HL-60 Energy Utilization (HL-60 cells [2]; [14]) | Effect of 1 mM chloramphenicol on HL-60 Energy Utilization (HL-60 cells [2]; [15]) | Effect of 1 mM chloramphenicol on HL-60 Energy Utilization (HL-60 cells [2]; [16]) | Effect of 1 mM chloramphenicol on HL-60 Energy Utilization (HL-60 cells [2]; [17]) | Effect of 1 mM chloramphenicol on HL-60 Energy Utilization (HL-60 cells [2]; [18]) | also measured
1 | O=C[C@H](O)[C@@H](O)[C@@H](O)[C@H](O)C(=O)O [D-galacturonic acid] | 124 | 140 | 171 | 177 | 165 | 179 | 228 | 162 | 1.4 % of negative control | 12.8 % of negative control | 43.5 % of negative control | 61.8 % of negative control | 0.2 % of negative control | −2.7 % of negative control | −4.6 % of negative control | −4.6 % of negative control | 7.9 % of negative control | 8.4 % of negative control | 5.0 % of negative control | −12.8 % of negative control | cell activity in the presence of citric acid, in words (HL-60 cells [1]; 10 mM citric acid): acitivity; also recorded: capable of overcoming the antiproliferative effects of citric acid; Effect of 10 mM Citric Acid on HL-60 Energy Utilization (HL-60 cells [1]; [7]): 141.6 % of negative control; Effect of 10 mM Citric Acid on HL-60 Energy Utilization (HL-60 cells [1]; [8]): 177.0 % of negative control; Effect of 10 mM Citric Acid on HL-60 Energy Utilization (HL-60 cells [1]; [9]): 136.3 % of negative control; Effect of 10 mM Citric Acid on HL-60 Energy Utilization (HL-60 cells [1]; [10]): 110.8 % of negative control
2 | NC(=O)C[C@H](N)C(=O)O [L-asparagine] | 122 | 190 | 203 | 173 | 161 | 124 | 112 | 52.2 | 10.1 % of negative control | 15.3 % of negative control | 13.4 % of negative control | 24.6 % of negative control | 6.3 % of negative control | 17.4 % of negative control | 7.6 % of negative control | 3.1 % of negative control | 12.1 % of negative control | 22.9 % of negative control | 20.9 % of negative control | 30.2 % of negative control | Effect of 10 mM Citric Acid on HL-60 Energy Utilization (HL-60 cells [1]; [7]): 48.6 % of negative control; Effect of 10 mM Citric Acid on HL-60 Energy Utilization (HL-60 cells [1]; [8]): 100.1 % of negative control; Effect of 10 mM Citric Acid on HL-60 Energy Utilization (HL-60 cells [1]; [9]): 97.7 % of negative control; Effect of 10 mM Citric Acid on HL-60 Energy Utilization (HL-60 cells [1]; [10]): 98.3 % of negative control
3 | N[C@@H](Cc1c[nH]cn1)C(=O)O [L-histidine] | 125 | 142 | 173 | 148 | 180 | 210 | 195 | 72.1 |  |  |  |  | 6.9 % of negative control | 4.3 % of negative control | 7.3 % of negative control | 7.2 % of negative control | 13.9 % of negative control | 19.1 % of negative control | 13.1 % of negative control | 8.4 % of negative control | 
